Test results taken from patent US5047431A, “1,1,2-triphenylbut-1-ene derivatives” (Klinge Pharma GmbH & Co., priority 1980, dated 1991).
Entries after “also recorded” stand apart in the source; their conditions may differ.

Legend:
[1] = system: hormone-dependent mammary; details: background art; cited from earlier work
[2] = background art; cited from earlier work
estradiol receptor = molecular target: T1, estradiol receptor (Oryctolagus cuniculus, UniProt G1SML6); assay: Binding affinity to the estradiol receptor (displacement of [3H]-estradiol from uterus cytosol); design: species or system rabbit (New Zealand rabbits); details: uterus cytosol of prepuberal rabbits, 18 hours at 4° C., 2.5×10^-9 M [3H]-estradiol; read-out: ED50% (concentration of the substance which replaces 50% [3H]-estradiol from the estradiol receptor)
T1 construct: The uterus cytosol of female, prepuberal white rabbits; from tissue; host or cells: uterus cytosol of female prepuberal New Zealand white rabbits
T1 sequence (G1SML6 1-598): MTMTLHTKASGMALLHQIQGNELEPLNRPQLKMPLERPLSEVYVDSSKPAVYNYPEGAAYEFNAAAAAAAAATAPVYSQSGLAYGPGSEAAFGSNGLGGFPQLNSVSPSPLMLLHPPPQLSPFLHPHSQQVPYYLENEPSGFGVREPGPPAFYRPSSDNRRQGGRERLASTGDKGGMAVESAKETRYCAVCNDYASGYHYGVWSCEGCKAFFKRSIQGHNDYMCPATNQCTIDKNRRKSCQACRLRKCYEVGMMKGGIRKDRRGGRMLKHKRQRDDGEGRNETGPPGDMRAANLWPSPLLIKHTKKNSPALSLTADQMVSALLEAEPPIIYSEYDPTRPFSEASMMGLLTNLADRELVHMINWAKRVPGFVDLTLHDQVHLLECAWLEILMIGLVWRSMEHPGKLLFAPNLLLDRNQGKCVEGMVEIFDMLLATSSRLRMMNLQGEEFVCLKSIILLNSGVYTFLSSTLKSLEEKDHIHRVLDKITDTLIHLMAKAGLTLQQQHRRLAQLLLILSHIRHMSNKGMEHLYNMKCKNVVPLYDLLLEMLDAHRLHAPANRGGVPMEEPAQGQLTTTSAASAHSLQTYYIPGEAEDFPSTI
Description: The determination of the binding affinity to the estradiol receptor was made using rabbit uterus cytosol.
The binding affinity to the estradiol receptor was measured according to the method of N. Devleeschouwer, G. Leclercq, A. Danguy and J.C. Heuson [Europ.
H]-estradiol from the estradiol receptor.

[3] = system: 7,12-dimethylbenz(a)anthracene-induced mammary tumor; assay: Inhibitory effect on the 7,12-dimethylbenz(a)anthracene-induced mammary tumor; type: in vivo, female Sprague-Dawley rat (Hanover breed); details: compared with tamoxifen under the same test conditions
Description: Twice weekly and on the 28th day of testing the number of animals was determined and the tumor surface (mm^2 /animal) of the therapy animals and control animals was measured. At the end of testing, the percentage increase of the average tumor surface of the treated animals was determined in comparison to the control animals, the surface of the latter being taken as 100%.

Row | Structure (SMILES) | therapy of hormone-dependent mammary tumors (in words) [1] | anti-estrogenic activity (in words) [2] | IC50 (estradiol receptor) [nM] | inhibitory activity on the mammary tumor (in words) [3]
1 | CC/C(=C(\c1ccccc1)c1ccc(OCCN(C)C)cc1)c1ccccc1 [Tamoxifen, (Z)-1-[4'-(2-dimethylaminoethoxy)phenyl]-1,2-diphenylbut-1-ene] | already proved successful in the therapy of hormone-dependent mammary | marked anti-estrogenic activity |  | 
2 | CC/C(=C(/c1ccc(OCCNC)cc1)c1cccc(O)c1)c1ccccc1 [Compound 3, (E)-1-(3'-Hydroxyphenyl)-1-[4'-(2-methylaminoethoxy)phenyl]-2-phenylbut-1-ene] |  |  | 37 | 
3 | CC/C(=C(\c1ccc(O)cc1)c1ccc(OCCN(C)C)cc1)c1ccccc1 [4-hydroxytamoxifen] |  | antiestrogenic effect comparable to tamoxifen |  | 
4 | CC/C(=C(/c1ccc(OCCN(CC)CC)cc1)c1cccc(O)c1)c1ccccc1 [Compound 2, (E)-1-[4'-(2-Diethylaminoethoy)phenyl]-1-(3'-hydroxyphenyl)-2-phenylbut-1-ene] |  |  | 65 | 
5 | CC/C(=C(/c1ccc(OCCN(C)C)cc1)c1cccc(O)c1)c1ccccc1 [Compound 1, (E)-1-[4'-(2-Dimethylaminoethoxy)phenyl]-1-(3-hydroxyphenyl)-2-phenylbut-1-ene] |  |  | 24 | above the activity of tamoxifen; also recorded: clearly superior to tamoxifen in the inhibitory activity on the tumor
